Measured values: US20100189683A1, “Pulsatile Dosing of Gossypol for Treatment of Disease” (Ascenta Therapeutics, Inc., priority 2008, published 2010)
Where a name gives a salt, the structure may show the parent alone.

Experiments:
[1] = system: patients with histologically confirmed metastatic prostate cancer; assay: CS-202 Phase I data from 9 patients (toxicity); type: in vivo, human; conditions: 40-60 mg BID days 1-3 every 21 days with docetaxel 75 mg/m2 and prednisone
[2] = system: patients with metastatic prostate cancer, hormone-refractory; assay: CS-202 Phase I-II, Cohort A (hormone-refractory patients): PSA and tumor response; type: in vivo, human; conditions: with docetaxel and prednisone
Source text: See N. Engl. J. Med. 351:1502-1512 (2004) for further details of TAX 327 clinical study.
(“D”=docetaxel; “P”=prednisone).

[3] = system: patients with advanced cancer; assay: Pulsatile dose administration of AT-101 b.i.d. times 3 days every other week, clinical efficacy and case summaries; type: in vivo, human
Source text: Following pulsatile dose administration of (−)-gossypol to patients with advanced cancer, clinical efficacy (e.g., patients having stable disease for 60 days or more) was monitored. […] The case summaries are as follows:
Patient 1 is a person diagnosed with non-small cell lung cancer (NSCLC) by bronchial biopsy in March 2005. The patient initially received the Carboplatin/paclitaxel with radiation therapy as adjuvant therapy from April to May 2005. Disease progression was diagnosed in September 2005 and treatment with erlotinib was begun in October 2005. The patient had progressive disease in January 2006. The patient started on treatment with AT-101 40 mg b.i.d. times 3 days every other week in March 2006. When the patient started on treatment with AT-101 they had extensive lymph node disease that remained stable on study drug for approximately 939 days (2.6 years). The patient's baseline signs and symptoms included: anemia, fatigue and productive cough. Their medical history includes: history of smoking, COPD, BPH, hypercholesterolemia, hypophosphatemia, RT induced esophagitis.
Patient 2 is a person diagnosed with a neuroendocrine carcinoma by a CT guided biopsy of an abdominal mass in May 2002. The patient was initially treated with interferon alpha from September 2002 to March 2003 but the disease progressed. Subsequently, the patient was treated with an investigational VEGFR2 targeted agent, SUO11248, from August 2003 to March 2004 until progression. The patient next received interferon plus capecitabine from August 2004 to June 2005 until disease progression in July 2005. Next, the patient was treated with […] doxirubicin from July 2005 to January 2006 until disease progression in February 2006. They started on the AT-101 treatment in February 2006 and received AT-101 30 mg b.i.d. times 3 days every other week. At the start of therapy, disease was present in the liver, abdomen, and pelvis and notable for numerous mesenteric masses. These remained stable on study for 18 cycles (534 days). The patient came off study due to increased weight loss and the investigator decision to send the patient for surgery for tumor debulking. The patient's baseline signs and symptoms included tumor pain, fatigue and weight loss. The patient's medical history included: GERD, HTN, congenital pulmonary cysts, anemia, and diarrhea.

[4] = system: men with docetaxel-refractory castration-resistant prostate cancer; assay: CS-202 Cohort B: AT-101 added to docetaxel/prednisone in docetaxel-refractory CRPC
Experimental: An open-label non-randomized Phase I-II clinical trial (labeled CS-202) is being carried out on patients with histologically confirmed metastatic prostate cancer. Briefly, patients are divided in into two cohorts: Cohort A-Patients with rising PSA level on hormonal therapy, i.e., hormone-refractory patients, and Cohort B-Patients with PSA or disease progression on docetaxel (taxotere), i.e., docetaxel-refractory patients. All patients were treated with 40-60 mg (−)-gossypol acetic acid co-crystal 40-60 mg BID days 1-3, every 21 days, 75 mg/m2 docetaxel q 21 days and prednisone, daily per label.
Treatment regimen in this study is: oral AT-101 40 mg BID×3 days q 3 weeks, IV taxotere 75 mg/m^2 q 3 weeks, and oral prednisone 5 mg BID daily.
A clinical study of docetaxel and prednisone in combination with AT-101 using a pulse administration schedule in men with docetaxel-refractory castration-resistant prostate cancer (CRPC) is ongoing (see Example 4, cohort B patients). A strict definition of docetaxel refractoriness which requires that the patient have progression as measured by PSA levels, RECIST, or bone scan while receiving docetaxel (D) and prednisone (P) is being used in the study. RECIST criteria are widely-used and well known in the art. The intervention is to continue docetaxel and prednisone treatment and to add AT-101.

[5] = system: A549 NSCLC xenograph model; assay: In vivo efficacy in the A549 NSCLC xenograft model; set-up: species or system nude mice; conditions: intermittent dosing 60 mg/kg po days 1-3 and 15-17, in combination with taxotere 30 mg/kg iv single dose
Experimental: The in vivo efficacy of (−)-gossypol acetic acid co-crystals alone or in combination with taxotere (TXT) in the A549 NSCLC xenograph model is shown in FIGS. 2 and 3. About 5 million cells of A549 were inoculated into nude mice, 8 mice per dosing group. In one experiment, (−)-gossypol acetic acid co-crystals were administered at 15 mg/kg, oral dosing (po), daily for 21 days, either alone or in combination with taxotere at 8 mg/kg, iv, once a week for three weeks (FIG. 2). In another experiment, (−)-gossypol acetic acid co-crystals were administered at 60 mg/kg, po, daily for three days per week (day 1-3/week) every two weeks (days 1-3, and then days 15-17), either alone or in combination with taxotere at 30 mg/kg, iv, single dose only, once every three weeks (FIG. 3).

[6] = system: men with treatment naïve CRPC; assay: Single agent AT-101 administration (20-30 mg daily); type: in vivo, human; conditions: single agent AT-101 at 20-30 mg daily
Source text: Better compliance with a 3-day dosing regimen, compared to daily for 21 of 28 days, for example, is expected.

Mcl-1 = Mcl-1 (Homo sapiens, UniProt Q07820); conditions: U.S. Patent Application No. 2003/0008924; cited from earlier work
Chain of Mcl-1 (Q07820 whole entry): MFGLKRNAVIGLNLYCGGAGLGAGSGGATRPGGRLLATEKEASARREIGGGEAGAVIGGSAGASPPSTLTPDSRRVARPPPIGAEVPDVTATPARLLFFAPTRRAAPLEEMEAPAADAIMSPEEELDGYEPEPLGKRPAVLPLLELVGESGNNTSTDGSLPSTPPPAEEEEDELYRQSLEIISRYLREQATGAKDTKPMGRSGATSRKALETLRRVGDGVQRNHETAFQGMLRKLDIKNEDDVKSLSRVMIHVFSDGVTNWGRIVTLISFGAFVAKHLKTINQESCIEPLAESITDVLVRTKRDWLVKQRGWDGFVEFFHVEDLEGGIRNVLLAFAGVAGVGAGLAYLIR

Bcl-XL = Bcl-XL (Homo sapiens, UniProt Q07817); conditions: U.S. Patent Application No. 2003/0008924; cited from earlier work
Chain of Bcl-XL (Q07817 whole entry): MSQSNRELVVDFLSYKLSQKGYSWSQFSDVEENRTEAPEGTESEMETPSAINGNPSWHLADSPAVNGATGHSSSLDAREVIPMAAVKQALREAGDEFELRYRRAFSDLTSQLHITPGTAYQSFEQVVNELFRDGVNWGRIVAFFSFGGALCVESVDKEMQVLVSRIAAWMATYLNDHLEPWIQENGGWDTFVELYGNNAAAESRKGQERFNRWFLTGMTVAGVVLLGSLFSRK

Bcl-2 = Bcl-2 (Homo sapiens, UniProt P10415); conditions: U.S. Patent Application No. 2003/0008924; cited from earlier work
Chain of Bcl-2 (P10415 whole entry): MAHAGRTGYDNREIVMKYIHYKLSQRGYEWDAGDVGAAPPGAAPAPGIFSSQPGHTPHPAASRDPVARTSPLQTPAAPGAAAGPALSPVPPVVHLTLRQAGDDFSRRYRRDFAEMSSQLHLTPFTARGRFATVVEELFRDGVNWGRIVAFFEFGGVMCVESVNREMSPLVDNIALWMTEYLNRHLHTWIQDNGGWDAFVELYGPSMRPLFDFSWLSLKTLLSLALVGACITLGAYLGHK

[7] = system: all-corners with relapsed SCLC; conditions: oral versus i.v. topotecan HCl; cited from earlier work
[8] = Patient 1, NSCLC, 40 mg b.i.d. times 3 days every other week
[9] = Patient 2, 30 mg b.i.d. times 3 days every other week
[10] = 20 patients with measurable disease by RECIST
[11] = AT-101 added to continued docetaxel and prednisone
[12] = first 11 patients of Cohort B, with docetaxel and prednisone

For `Cc1cc2c(C(C)C)c(O)c(O)c(C=O)c2c(O)c1-c1c(C)cc2c(C(C)C)c(O)c(O)c(C=O)c2c1O` [AT-101, (−)-gossypol acetic acid co-crystal], the Docetaxel hematological toxicity [1] was “no increase in docetaxel hematological toxicity”, the Dose-limiting toxicities [1] was “no dose-limiting toxicities” and the Severe gastrointestinal toxicity [1] was “no severe gastrointestinal toxicity”. The “PSA response versus time” value ([2]; Cohort A) was “PSA reductions occur early in the treatment and are long lasting”, the PSA response ([2]; first 20 patients of Cohort A) was “high rate of PSA response” and the “Patients refractory at the onset of treatment” value ([2]; first 20 patients of Cohort A) was “only one patient out of 20 was refractory”. The On-treatment toxicities [3, 8] was “grade 2 peripheral neuropathy”, the “Time disease remained stable on study drug” value [3, 8] was “approximately 939 days” and the “On treatment grade 1 toxicities” value [3, 9] was “general body aches, nausea, flatulence, headache, fatigue, hypomagnesemia, vomiting, hypokalemia and diarrhea”. For the same molecule, the “On treatment grade 2 toxicities” value [3, 9] was “weight loss, nausea, vomiting”, the “Time disease remained stable on study” value ([3]; Patient 2, neuroendocrine carcinoma, 30 mg b.i.d. times 3 days every other week, 18 cycles) was 534 days and the “On treatment grade 3 toxicity” value ([3]; Patient 2, considered serious, determined to be unrelated to AT-101 treatment) was “small bowel obstruction”. For the same molecule, the “Patients with clinical benefit (prolonged progression free period of more than 1 year)” value ([3]; among 37 patients, b.i.d. times 3 days every other week) was “two patients had clinical benefit”, the “Complete response (CR)” value [4, 10] was “one complete response (CR)” and the “PRs (RECIST)” value [4, 10] was 4. The “Patients with major tumor shrinkage based on radiographic assessments” value ([4]; 20 patients with measurable disease by RECIST criteria at baseline) was 6/20, the “Patients who have achieved a PSA partial response (PR) (50% or greater reduction)” value [4, 11] was 7/35 and the “Patients with some PSA reduction” value [4, 11] was 20/35. For the same molecule, the PSA response kinetics ([4]; added to a taxotere/prednisone regimen, patients of Cohort B) was “abrupt reversal of the PSA response (from rising to falling)”, the “Reduction in tumor volume” value ([4]; another single patient with measurable disease) was 29% and the “Patients having a 30+% decline in PSA response” value [4, 12] was 4 patients. For the same molecule, the “Patients having a 50+% decline in PSA response” value [4, 12] was 2 patients, the “Patients with the desired PSA response” value [4, 12] was 6 patients and the “Peak and AUC concentrations” value ([4]; human, in vivo) was “higher peak and AUC concentrations”. For the same molecule, the “Patients on-study for 4 months or longer” value ([4]; of 35 patients) was “Eight out of the 35 patients”, the “Patients on-study for 6 months or longer” value ([4]; of 35 patients) was 3 patients and the “D/P refractory patients who have had a PSA PR” value ([4]; patients meeting the strict definition of refractoriness) was 4/32. The Tolerability ([4]; pulsatile dose administration) was “well tolerated”, the D/P chemoresistance ([4]; pulsatile dose administration, some patients with CRPC) was “overcomes D/P chemoresistance in some patients with CRPC” and the “Responses, time-to-event plot” value ([4]; taxotere-refractory patients (37 eligible; 21 with measurable disease), AT-101 40 mg BID×3 days q 3 weeks added to taxotere/prednisone) was “multiple durable responses”. The RECIST responses ([4]; taxotere-refractory patients, AT-101 40 mg BID×3 days q 3 weeks added to taxotere/prednisone) was “RECIST partial responses are observed”, the Tumor volume [5] was “effectively reduces tumor volume” and the “RECIST SD (stable disease)” value [6] was “no RECIST SD (stable disease)”. For the same molecule, the “PSA PRs” value ([6]; compared with pulsatile dosing with D/P) was “fewer PSA PRs”.

For `Cc1cc2c(C(C)C)c(O)c(O)c(C=O)c2c(O)c1-c1c(C)cc2c(C(C)C)c(O)c(O)c(C=O)c2c1O` [Gossypol, gossypol], the “Binding to Mcl-1 at the BH3 binding groove” value (Mcl-1) is given as “shown to bind”, the “Binding to Bcl-XL at the BH3 binding groove” value (Bcl-XL) is given as “shown to bind” and the “Binding to Bcl-2 at the BH3 binding groove” value (Bcl-2) is given as “shown to bind”.

In the case of `CC[C@@]1(O)C(=O)OCc2c1cc1n(c2=O)Cc2cc3c(CN(C)C)c(O)ccc3nc2-1` [topotecan HCl, (S)-10-[(dimethylamino)methyl]-4-ethyl-4,9-dihydroxy-1H-pyrano[3′,4′:6,7] indolizino [1,2-b] quinoline-3,14-(4H,12H)-dione monohydrochloride], the “Median progression free survival (PFS)” value [7] is listed as 13.1 weeks and the ORR [7] is listed as 44%.
